Converted amounts (≈) assume the structure as drawn.
Key:
[1] = Selectivity index, EC50 for against african green monkey Vero cells to IC50 for Mycobacterium tuberculosis H37Rv; assay type: functional
Vero = assay: Cytotoxicity against african green monkey Vero cells; assay type: cell-based; conditions: Chlorocebus sabaeus
[2] = test system: Mycobacterium tuberculosis; assay: Antimycobacterial activity against Mycobacterium tuberculosis H37Rv; assay type: functional, organism-based

Row | SMILES | Ratio [1] | EC50 (Vero) [µg/mL] | IC50 [2] [µg/mL] | IC90 [2] [µM]
1 | N=c1c2ncnc(Nc3ccccc3)c2ncn1NC(=O)c1ccccc1 | 0.38 | 2.35 (≈ 6.58 µM) | 3.65 (≈ 10.2 µM) | 17.4
2 | N=c1c2ncnc(Nc3ccccc3)c2ncn1NC(=O)c1ccco1 |  |  | 3.16 (≈ 9.1 µM) | 14
3 | CC(=O)Nn1cnc2c(Nc3ccccc3)ncnc2c1=N |  |  | 44.9 (≈ 152 µM) | > 314
4 | N#Cc1ccc(Nc2ncnc3c(=N)n(NC(=O)c4ccncc4)cnc23)cc1 |  |  | 17.2 (≈ 44.9 µM) | > 240
5 | COc1ccc(Nc2ncnc3c(=N)n(NC(=O)c4ccccc4)cnc23)cc1 | 0.23 | 2.12 (≈ 5.47 µM) | 4.11 (≈ 10.6 µM) | 23.4
6 | COc1ccc(Nc2ncnc3c(=N)n(NC(=O)c4ccco4)cnc23)cc1 |  |  | 3.56 (≈ 9.43 µM) | 261
7 | COc1ccc(Nc2ncnc3c(=N)n(NC(C)=O)cnc23)cc1 |  |  | 46.5 (≈ 143 µM) | > 298
8 | N=c1c2ncnc(Nc3ccccc3)c2ncn1NC(=O)c1ccncc1 | 0.57 | 4.37 (≈ 12.2 µM) | 4.3 (≈ 12 µM) | 21
9 | CC(=O)Nn1cnc2c(Nc3ccc(C#N)cc3)ncnc2c1=N |  |  | 42.1 (≈ 131 µM) | > 311
10 | N#Cc1ccc(Nc2ncnc3c(=N)n(NC(=O)c4ccccc4)cnc23)cc1 |  |  | 2.47 (≈ 6.46 µM) | 36.1
11 | N=c1c2ncnc(Nc3ccc(F)cc3)c2ncn1NC(=O)c1ccncc1 | 0.43 | 1.53 (≈ 4.07 µM) | 0.91 (≈ 2.42 µM) | 9.12
12 | N=c1c2ncnc(Nc3ccc(F)cc3)c2ncn1NC(=O)c1ccccc1 | 0.6 | 3.05 (≈ 8.13 µM) | 2.92 (≈ 7.78 µM) | 13.5
13 | N=c1c2ncnc(Nc3ccc(F)cc3)c2ncn1NC(=O)c1ccco1 |  |  | 2.17 (≈ 5.94 µM) | 9.77
14 | CC(=O)Nn1cnc2c(Nc3ccc(F)cc3)ncnc2c1=N |  |  | 18.7 (≈ 59.7 µM) | 91.4
15 | COc1ccc(Nc2ncnc3c(=N)n(NC(=O)c4ccncc4)cnc23)cc1 | 0.27 | 1.15 (≈ 2.96 µM) | 1.59 (≈ 4.09 µM) | 9.49
